One molecule from ChEMBL document CHEMBL5550201, “Discovery of a Highly Potent, Selective and Efficacious USP7 Degrader for the Treatment of Acute Lymphoblastic Leukemia” (J Med Chem, 2024) can be followed below.

The subject of assay [1] is RS4-11. The experiment in a line: Antitumor activity against human RS4-11 cells xenografted in NOD/SCID mouse model assessed as tumor growth inhibition at 5 mg/kg, ip daily measured after 18 days relative to control. Particulars: RS4-11, 432 h, time 18 day, read-out: TGI. Format: functional. For orientation: Xenograft models place foreign cells or tissue in a host animal.

Assay [2] has as its system RS4-11. The experiment in a line: Induction of apoptosis in human RS4-11 cells assessed as late apoptotic cells at 100 nM measured after 72 hrs by FITC-annexin-V/PI analysis (reference value: 3.23%). Format: functional.
Assay [3] deals with T1, von Hippel-Lindau disease tumor suppressor/Ubiquitin carboxyl-terminal hydrolase 7 (Homo sapiens, UniProt Q93009+P40337). Kind of assay: PROTACT activity at USP7/VHL in human RS4;11 cells assessed as protein degradation at 10 nM measured after 6 hrs in presence of VHL-binder by Western blot analysis. Format: cell-based. In general terms: Immunoblotting shows a protein as a band on a membrane.
Target sequence in this assay (P40337 whole entry, looked up): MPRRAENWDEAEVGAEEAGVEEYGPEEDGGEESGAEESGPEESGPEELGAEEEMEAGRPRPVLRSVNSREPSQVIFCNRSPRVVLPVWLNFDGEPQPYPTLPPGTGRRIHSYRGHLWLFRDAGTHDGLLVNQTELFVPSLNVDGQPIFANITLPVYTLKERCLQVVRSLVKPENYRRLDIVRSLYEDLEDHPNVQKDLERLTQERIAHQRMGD
Target sequence in this assay (Q93009 whole entry, looked up): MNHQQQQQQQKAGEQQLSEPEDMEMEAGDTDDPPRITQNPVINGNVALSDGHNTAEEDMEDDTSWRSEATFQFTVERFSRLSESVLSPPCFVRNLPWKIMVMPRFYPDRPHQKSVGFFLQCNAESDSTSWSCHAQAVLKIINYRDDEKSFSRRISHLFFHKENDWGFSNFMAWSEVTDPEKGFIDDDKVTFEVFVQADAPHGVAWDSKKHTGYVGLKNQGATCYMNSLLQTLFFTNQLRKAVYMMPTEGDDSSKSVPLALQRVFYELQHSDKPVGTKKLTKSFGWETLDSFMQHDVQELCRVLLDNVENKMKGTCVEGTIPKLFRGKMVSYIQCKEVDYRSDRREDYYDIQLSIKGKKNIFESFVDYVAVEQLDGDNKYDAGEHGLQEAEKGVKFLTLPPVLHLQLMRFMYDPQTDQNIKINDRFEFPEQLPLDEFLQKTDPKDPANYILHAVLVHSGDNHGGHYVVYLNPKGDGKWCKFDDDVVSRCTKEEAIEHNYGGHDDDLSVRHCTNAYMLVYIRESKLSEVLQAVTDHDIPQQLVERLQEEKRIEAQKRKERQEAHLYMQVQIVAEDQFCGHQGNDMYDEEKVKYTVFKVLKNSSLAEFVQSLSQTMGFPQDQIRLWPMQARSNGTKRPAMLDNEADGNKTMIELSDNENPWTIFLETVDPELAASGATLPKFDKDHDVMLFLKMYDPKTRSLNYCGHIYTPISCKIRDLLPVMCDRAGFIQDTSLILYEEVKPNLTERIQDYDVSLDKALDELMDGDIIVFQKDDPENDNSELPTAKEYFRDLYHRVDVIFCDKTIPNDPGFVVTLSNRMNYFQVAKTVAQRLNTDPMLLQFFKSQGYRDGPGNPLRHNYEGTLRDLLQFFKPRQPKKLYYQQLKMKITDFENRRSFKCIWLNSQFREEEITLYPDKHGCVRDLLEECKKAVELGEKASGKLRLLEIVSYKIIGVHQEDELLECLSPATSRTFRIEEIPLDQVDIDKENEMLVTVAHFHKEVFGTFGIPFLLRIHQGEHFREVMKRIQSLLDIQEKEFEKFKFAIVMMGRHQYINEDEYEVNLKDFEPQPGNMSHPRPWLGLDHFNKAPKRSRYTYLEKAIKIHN

Assay [4] addresses T1, von Hippel-Lindau disease tumor suppressor/Ubiquitin carboxyl-terminal hydrolase 7. The experiment in a line: PROTACT activity at USP7/VHL in human RS4;11 cells assessed as protein degradation at 10 nM measured after 24 hrs by Western blot analysis relative to control. The assay is classed as cell-based.
Target sequence in this assay (P40337 whole entry, looked up): as the sequence (P40337 whole entry, looked up) above
Target sequence in this assay (Q93009 whole entry, looked up): as the sequence (Q93009 whole entry, looked up) above
In assay [5] the test system is RS4-11. The experiment in a line: Induction of apoptosis in human RS4-11 cells assessed as late apoptotic cells at 1 nM measured after 72 hrs by FITC-annexin-V/PI analysis (reference value: 3.23%). Format: functional.
Assay [6] concerns the target T1, von Hippel-Lindau disease tumor suppressor/Ubiquitin carboxyl-terminal hydrolase 7. The experiment in a line: PROTACT activity at USP7/VHL in human RS4;11 cells assessed as maximal protein degradation measured after 24 hrs by Western blot analysis relative to control. Format: cell-based.
Target sequence in this assay (P40337 whole entry, looked up): as the sequence (P40337 whole entry, looked up) above
Target sequence in this assay (Q93009 whole entry, looked up): as the sequence (Q93009 whole entry, looked up) above
Assay [7] has as its system RS4-11. The experiment in a line: Induction of apoptosis in human RS4-11 cells assessed as necrotic cells at 100 nM measured after 72 hrs by FITC-annexin-V/PI analysis (reference value: 0%). The assay is classed as functional.
Assay [8] has as its target T1, von Hippel-Lindau disease tumor suppressor/Ubiquitin carboxyl-terminal hydrolase 7. Kind of assay: PROTACT activity at USP7/VHL in human RS4;11 cells assessed as protein degradation measured after 24 hrs by Western blot analysis. Format: cell-based.
Target sequence in this assay (Q93009 whole entry): as the sequence (Q93009 whole entry, looked up) above
Target sequence in this assay (P40337 whole entry): as the sequence (P40337 whole entry, looked up) above
Assay [9] has as its system RS4-11. Kind of assay: Antitumor activity against human RS4-11 cells xenografted in NOD/SCID mouse model assessed as tumor growth inhibition at 10 mg/kg, ip daily measured after 18 days relative to control. Format: functional. Particulars: RS4-11, 432 h, time 18 day, read-out: TGI.
The target in assay [10] is T1, von Hippel-Lindau disease tumor suppressor/Ubiquitin carboxyl-terminal hydrolase 7. Kind of assay: PROTACT activity at USP7/VHL in human RS4;11 cells assessed as protein degradation at 10 nM measured after 6 hrs in presence of proteasome inhibitors PS-171 by Western blot analysis. Format: cell-based.
Target sequence in this assay (P40337 whole entry, looked up): as above
Target sequence in this assay (Q93009 whole entry, looked up): as the sequence (Q93009 whole entry, looked up) above

The source made the active and inactive calls. No cut-off for these calls is given here.

One may read the Emax as the greatest response seen or fitted, relative to the assay's reference. A word on the DC50: it is the concentration at which degradation of the target reaches its halfway point. With `Cc1ncsc1-c1ccc([C@H](C)NC(=O)[C@@H]2C[C@@H](O)CN2C(=O)[C@@H](c2cc(N3CCN(Cc4ccc(-c5c6ncn(CC7(O)CCN(C(=O)C[C@@H](C)c8ccccc8)CC7)c(=O)c6nn5C)cc4)CC3)no2)C(C)C)cc1`, in the assay with RS4-11 [1], the inhibition in vivo at 5 mg/kg is 64.7%. Besides, the Activity turned out to be 20.73% in the assay with RS4-11 [2], 91.6% in assay [4], 12.98% in the assay with RS4-11 [5] and 0.01% with RS4-11 [7]. Besides, the outcome in assay [3] and in assay [10] was inactive. In addition, the maximal effect (Emax) in assay [6] worked out at 93.1%. The DC50 in assay [8] was 0.74 nM. Also, the inhibition in vivo at 10 mg/kg with RS4-11 [9] is 60.8%.
